Here are results for 4 compounds from ChEMBL document CHEMBL1201862, “PubChem BioAssay data set” (2004).

Among the test systems are NCI-H23; HT-29; UACC-257; SF-295; EKVX; OVCAR-8; SNB-75; MDA-N; SK-MEL-2; RPMI-8226; SN12C; NCI-H522; 786-0; OVCAR-5; HOP-92; MCF7; SF-268; HCT-116; SNB-19; MDA-MB-435.
Holding throughout (assay): NCI-60 cell line screen, 48 h

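In this assay, cells in 96-well plates receive the compound at five concentrations for 48 hours. Endpoints are linearly interpolated between the surrounding concentrations. GI50 = concentration required for 50% inhibition of growth.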 The source made the active and inactive calls. Cut-off read from the data, not from the text of the source: active = GI50 up to about 1.1 µM and inactive = higher. Where only a bound is given, the exact number is not on record here.

`CCOC(=O)N1CCN(c2ccc3ccc(N)nc3n2)CC1`: the GI50 in the test on NCI-H23 is > 100 µM (inactive); in the test on HT-29 it was 80.2 µM (inactive); with UACC-257, > 100 µM (inactive); with SF-295 it was > 100 µM (inactive); with EKVX, > 100 µM (inactive); with OVCAR-8, > 100 µM (inactive). Also, the GI50 in the test with SNB-75, with MDA-N, in the test with SK-MEL-2, in the test on RPMI-8226, in the test on SN12C and in the test on NCI-H522 was > 100 µM (inactive) each time. Also, the GI50 with 786-0, in the test on OVCAR-5, in the test with HOP-92, with MCF7, with SF-268 and in the test with HCT-116 was > 100 µM (inactive) throughout. The GI50 in the test with SNB-19 and in the test with MDA-MB-435 was > 100 µM (inactive) throughout.
Turning to `COc1cc(CSc2ccc(O)cc2)cc(O)c1O`, the GI50 with NCI-H23 was 41.8 µM (inactive); in the test with HT-29, 22.2 µM (inactive); in the test on UACC-257, 34 µM (inactive); in the test with SF-295, 23.2 µM (inactive); in the test on EKVX, 85.7 µM (inactive); in the test with OVCAR-8, 26.2 µM (inactive). The GI50 is 32.1 µM (inactive) with SNB-75; 26.7 µM (inactive) with MDA-N; 24.5 µM (inactive) with SK-MEL-2; 15.7 µM (inactive) in the test with RPMI-8226; 25.2 µM (inactive) in the test with SN12C; 16.1 µM (inactive) in the test on NCI-H522. For the same compound, the GI50 in the test on 786-0 is 36.2 µM (inactive); with OVCAR-5 it was 23.4 µM (inactive); in the test with HOP-92, 22.7 µM (inactive); in the test on MCF7 it was 17.6 µM (inactive); in the test with SF-268, 28.8 µM (inactive); with HCT-116 it was 22.1 µM (inactive). The GI50 is 37 µM (inactive) in the test on SNB-19 and 17.2 µM (inactive) with MDA-MB-435.
In the case of `O=C1C(=O)N(c2cccc(C(F)(F)F)c2)C(=O)C(=O)C1c1nc2ccccc2s1`, the GI50 in the test with NCI-H23 is > 59.7 µM (inactive); in the test with HT-29, 78.3 µM (inactive); in the test on UACC-257 it was > 92 µM (inactive); in the test with SF-295, 65.3 µM (inactive); in the test with EKVX, > 100 µM (inactive); in the test on OVCAR-8, 20.2 µM (inactive). The GI50 in the test with SNB-75 was > 49.5 µM (inactive); with MDA-N it was > 100 µM (inactive); in the test on SK-MEL-2, > 100 µM (inactive); with RPMI-8226 it was > 80 µM (inactive); with SN12C, > 93.3 µM (inactive); in the test with NCI-H522 it was > 100 µM (inactive). In addition, the GI50 in the test on 786-0 was 72.3 µM (inactive); in the test on OVCAR-5, > 100 µM (inactive); in the test with HOP-92, > 100 µM (inactive); in the test with MCF7, 45.1 µM (inactive); with SF-268 it was 98.2 µM (inactive); in the test on HCT-116 it was 43.8 µM (inactive). The GI50 in the test on SNB-19 and with MDA-MB-435 was > 100 µM (inactive) throughout.
For `c1ccc(C(=NNc2nc3ccccc3[nH]2)c2ccccn2)nc1`, the GI50 in the test with NCI-H23 was 0.24 µM (active); in the test with HT-29 it was 0.0221 µM (active); in the test on UACC-257 it was 0.145 µM (active); with SF-295, 2.13 µM (inactive); with EKVX, 0.929 µM (active); in the test with OVCAR-8 it was 0.0993 µM (active). For the same compound, the GI50 is 0.218 µM (active) with SNB-75; 0.394 µM (active) in the test on MDA-N; 12.9 µM (inactive) in the test on SK-MEL-2; 0.129 µM (active) with RPMI-8226; 0.128 µM (active) with SN12C; 0.0288 µM (active) with NCI-H522. Besides, the GI50 in the test on 786-0 was 0.123 µM (active); in the test with OVCAR-5, 1.74 µM (inactive); in the test with HOP-92, 0.0232 µM (active); in the test on MCF7, 0.143 µM (active); in the test on SF-268, 0.13 µM (active); in the test on HCT-116, 0.0832 µM (active). Besides, the GI50 in the test with SNB-19 was 0.33 µM (active); in the test with MDA-MB-435, 0.348 µM (active).
